We go through 5 compounds from patent publication US11198680B2 (BioAxone BioSciences, Inc., priority 2016, dated 2021).

pIC50, pKd: −log10 of the molar value. Where two headings read alike, the source gives them in different places.

The target of experiment [1] is T1, ROCK1 (Homo sapiens (Human), UniProt Q13464). The experiment can be described thus: Direct filter-binding radiometric kinase assay, IC50 determination. The class given is biochemical. As to the method: Variations in ATP concentrations were tested to better understand potential selectivity in ischemic and diseased tissue where ATP concentrations may be low and impact selectivity.
T1 sequence (Q13464 2-1354 limits assumed): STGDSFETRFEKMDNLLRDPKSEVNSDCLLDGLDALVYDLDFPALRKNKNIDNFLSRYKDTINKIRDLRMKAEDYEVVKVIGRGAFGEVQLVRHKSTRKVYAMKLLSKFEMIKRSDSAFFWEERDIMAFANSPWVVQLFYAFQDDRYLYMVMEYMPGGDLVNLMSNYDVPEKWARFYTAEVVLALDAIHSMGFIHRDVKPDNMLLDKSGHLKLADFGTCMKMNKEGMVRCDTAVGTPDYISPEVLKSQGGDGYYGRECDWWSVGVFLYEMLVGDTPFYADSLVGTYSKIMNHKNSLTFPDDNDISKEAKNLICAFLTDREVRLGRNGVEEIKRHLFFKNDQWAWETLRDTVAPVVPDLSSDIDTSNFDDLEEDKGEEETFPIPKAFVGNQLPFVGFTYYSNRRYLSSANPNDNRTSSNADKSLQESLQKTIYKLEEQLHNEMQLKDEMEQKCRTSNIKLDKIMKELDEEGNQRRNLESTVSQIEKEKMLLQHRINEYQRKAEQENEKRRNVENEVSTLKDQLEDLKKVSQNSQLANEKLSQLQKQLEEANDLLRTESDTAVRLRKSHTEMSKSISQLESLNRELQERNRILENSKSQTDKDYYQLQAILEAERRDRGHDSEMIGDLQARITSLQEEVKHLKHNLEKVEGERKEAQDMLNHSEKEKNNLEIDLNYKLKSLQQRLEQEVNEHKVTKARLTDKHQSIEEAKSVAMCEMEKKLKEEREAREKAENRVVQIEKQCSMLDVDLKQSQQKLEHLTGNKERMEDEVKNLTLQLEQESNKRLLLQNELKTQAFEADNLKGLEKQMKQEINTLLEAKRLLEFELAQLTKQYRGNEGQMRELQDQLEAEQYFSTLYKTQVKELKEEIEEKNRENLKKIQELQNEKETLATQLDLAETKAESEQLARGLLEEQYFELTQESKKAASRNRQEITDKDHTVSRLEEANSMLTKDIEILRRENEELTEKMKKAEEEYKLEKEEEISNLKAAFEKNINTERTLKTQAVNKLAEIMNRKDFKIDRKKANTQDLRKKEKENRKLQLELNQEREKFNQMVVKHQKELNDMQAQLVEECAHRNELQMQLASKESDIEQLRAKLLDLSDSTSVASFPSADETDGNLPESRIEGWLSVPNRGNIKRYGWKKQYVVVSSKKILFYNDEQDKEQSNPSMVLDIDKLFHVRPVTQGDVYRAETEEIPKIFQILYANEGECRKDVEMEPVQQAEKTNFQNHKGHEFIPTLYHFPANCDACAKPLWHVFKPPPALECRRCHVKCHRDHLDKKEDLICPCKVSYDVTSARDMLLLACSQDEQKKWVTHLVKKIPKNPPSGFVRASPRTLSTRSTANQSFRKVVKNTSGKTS
[…] Both services use a direct filter-binding, radiometric kinase assay with slight variation in protocol.
The top concentration tested was 100 μM for both services. Test compounds were prepared in 100% DMSO at 50× final test concentration and were diluted to 1× in the assay with a final DMSO concentration of 2%.
For one assay, the substrate […] (SEQ ID NO:1) (30 μM) was mixed with reaction buffer (Table 4) and the kinase domain from either the ROCK1 or ROCK2 (as indicated in Table 4). Next, the compounds (in DMSO) were delivered into the mixture via acoustic mixing technology (Echo550, nanoliter range) (SelectScience, Waltham, Mass.), and incubated at RT for 20 min. […] Reactions were then spotted onto P81 ion exchange paper followed by scintillation counting.
The reaction was stopped by the addition of 3% phosphoric acid and 10 μL of the reaction was spotted onto P30 filtermat, washed 3 times in 75 mM phosphoric acid and once in methanol prior to scintillation counting.

Experiment [2] deals with T2, ROCK2 (Homo sapiens (Human), UniProt O75116). The description is as above. The class given is biochemical.
T2 sequence (O75116 whole entry, species assumed): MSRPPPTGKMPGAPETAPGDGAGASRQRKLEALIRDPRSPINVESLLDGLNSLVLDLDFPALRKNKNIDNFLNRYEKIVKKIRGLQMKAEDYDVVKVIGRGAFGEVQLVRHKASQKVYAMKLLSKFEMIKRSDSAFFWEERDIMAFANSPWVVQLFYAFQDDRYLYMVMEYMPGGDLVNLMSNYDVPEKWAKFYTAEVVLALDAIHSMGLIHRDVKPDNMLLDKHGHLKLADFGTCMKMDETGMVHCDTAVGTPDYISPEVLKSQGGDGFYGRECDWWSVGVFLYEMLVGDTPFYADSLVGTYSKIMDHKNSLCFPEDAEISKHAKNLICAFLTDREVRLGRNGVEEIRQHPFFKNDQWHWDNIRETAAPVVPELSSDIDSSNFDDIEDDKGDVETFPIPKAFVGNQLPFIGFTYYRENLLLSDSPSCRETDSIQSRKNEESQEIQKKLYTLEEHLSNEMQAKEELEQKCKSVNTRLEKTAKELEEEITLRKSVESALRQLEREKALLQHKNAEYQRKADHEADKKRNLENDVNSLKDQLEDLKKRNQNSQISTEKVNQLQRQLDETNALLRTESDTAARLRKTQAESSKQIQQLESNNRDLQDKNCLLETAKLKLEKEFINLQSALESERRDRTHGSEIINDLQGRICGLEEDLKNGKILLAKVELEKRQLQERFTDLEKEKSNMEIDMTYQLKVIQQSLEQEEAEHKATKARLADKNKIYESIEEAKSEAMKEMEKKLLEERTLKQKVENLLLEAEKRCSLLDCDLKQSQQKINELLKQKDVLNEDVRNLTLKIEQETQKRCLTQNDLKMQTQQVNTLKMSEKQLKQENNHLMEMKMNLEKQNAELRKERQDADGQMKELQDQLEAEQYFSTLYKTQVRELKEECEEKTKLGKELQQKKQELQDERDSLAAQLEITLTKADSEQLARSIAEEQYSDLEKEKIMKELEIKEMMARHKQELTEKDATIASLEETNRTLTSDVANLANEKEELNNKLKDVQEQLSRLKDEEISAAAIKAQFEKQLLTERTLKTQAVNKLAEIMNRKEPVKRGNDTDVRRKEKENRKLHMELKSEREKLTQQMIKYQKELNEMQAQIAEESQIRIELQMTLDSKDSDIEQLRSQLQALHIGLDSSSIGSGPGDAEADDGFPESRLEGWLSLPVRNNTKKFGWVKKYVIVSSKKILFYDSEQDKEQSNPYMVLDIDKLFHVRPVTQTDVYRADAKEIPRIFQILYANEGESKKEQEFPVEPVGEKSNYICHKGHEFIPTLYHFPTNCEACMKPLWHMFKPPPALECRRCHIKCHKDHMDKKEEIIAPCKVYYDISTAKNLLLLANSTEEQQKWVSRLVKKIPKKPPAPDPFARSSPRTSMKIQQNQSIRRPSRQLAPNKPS
Experiment [3] relates to ROCK2 activation (phospho-cofilin). The experiment can be described thus: Transient MCAO stroke model, phospho-cofilin Western blot left versus right brain. The experiment is classed as in vivo, mouse. The settings on record: 10 mg/kg I.P. within 30 min after MCAO, tissue 24 hr post MCAO. For orientation: In western blotting, separated proteins are transferred to a membrane and probed.
Protocol: The murine intraluminal monofilament model of middle cerebral artery occlusion (MCAO) is used on mice in this study. MCAO involves the insertion of a surgical filament into the external carotid artery and threading it forward into the internal carotid artery until the tip occludes the origin of the MCA, resulting in a cessation of blood flow and subsequent brain infarction in the MCA territory. The technique is used herein to model transient occlusion. If the filament is removed after 1 h, reperfusion is achieved (transient MCAO). This study determines the most efficacious dose and route of administration that reduce Rho-kinase 2 (ROCK2) activation following transient MCAO-induced stroke in mice. The pharmacodynamic response is also determined in this study.
Twenty-eight 9-wk old C57BL/6 (Charles River Laboratories) were used in this study. For surgery, the mouse was placed in a supine position on an infrared heating pad. The fur over the ventral neck was shaved and the skin was disinfected with 70% ethanol and povidone iodine. Under a stereo dissecting microscope, a 1 cm midline incision was made on the neck and retractors were used to expose the left common carotid artery (CCA), the external carotid artery (ECA) and the internal carotid artery (ICA). The arteries were carefully dissected to free them from surrounding nerves and fascia. The ECA was dissected further distally and two 8-0 silk sutures are tied around the ECA stump and a vascular clamp was applied at the bifurcation of the CCA into the ECA and ICA. A small incision was made at the end of ECA stump with Vannas-style spring scissors. A blunt 5-0 monofilament suture (Doccol) was inserted into the incision and advanced from the lumen of the ECA into the ICA for a distance of 9-10 mm beyond the bifurcation of CCA to occlude the origin of MCA. For the mouse model, a distance of 9 mm-11 mm rostral to the CCA bifurcation is inserted. After 60 min., the monofilament was removed. The incision was sutured with 4.0 prolene sutures. […] The mouse is allowed to recover on a heating pad until thermoregulation is re-established.
For Western blot analysis, mice were anesthetized using isoflurane and decapitated. […]
20 μL protease inhibitor (Halt, Protease, Fisher Scientific, Pittsburgh, Pa.) and 10 μL phosphatase inhibitor (Fisher Scientific) were added to 1 mL RIPA buffer (Santa Cruz Biotechnology, Dallas, Tex.). […] The protein concentration of each sample was determined using the DC Protein Assay Kit and following the manufacturer's instructions.
The left and right hemispheres of each brain were homogenized and prepared for Western blotting, and the signal of phospho-cofilin was measured quantitatively by densitometry compared to an internal standard, cyclophilin. […]

The subject of experiment [4] is phospho-MLC2 (Ser19). The experiment can be described thus: Transient MCAO stroke model, phospho-MLC2 (Ser19) immunohistochemistry of insular cortex. The experiment is classed as in vivo, mouse. The settings on record: 10 mg/kg I.P. On the procedure:
For immunohistochemistry, mice were anesthetized using isoflurane and perfused intracardially using paraformaldehyde (4% PFA), brain and weights were recorded. Brain specimens from fixed animals were frozen in OCT and sectioned using a cryostat.
Frozen tissue sections embedded in OCT were analyzed by immunohistochemistry. The left side of the brain slice contains ischemic tissue due to the MCAO while the right hemisphere acts as a control without ischemia. Staining with these antibodies provide biomarkers for both ischemic area and ROCK2 activation.

The target in experiment [5] is T1, ROCK1.
Protocol: (§1) The assay is performed by combining the DNA-tagged kinase, immobilized ligand, and a test compound. The ability of the test compound to compete with the immobilized ligand is measured via quantitative PCR of the DNA tag.
(§2) The highest concentration tested was 30 μM.
Experiment [6] deals with T2, ROCK2. The settings on record: for Fold-Difference: ROCK1 KD vs ROCK2 KD.
Protocol: as §1, §2
Experiment [7] relates to Rho/ROCK activity (MLC2 diphosphorylation) in HUVECs. The experiment can be described thus: LPA-treated HUVECs, pMLC2 T18/S19 immunoblot. The experiment is classed as cell-based, human. The settings on record: 1-100 μM 1 hr, 20 μM LPA 5 min.
Protocol: (§3) Cell lines were exposed to each dose for 1 hr, and then are stimulated with 20 μM LPA for either 5 min or 1 hr as described below. All experiments were conducted in triplicate and analyzed by two independent assessors blinded to both cell line and treatment.
Cells were subjected to biochemical analysis of diphosphorylated MLC2 (Threonine 18/Serine 19 phosphorylation sites) and cofilin (Serine 9 phosphorylation site) using SDS-PAGE and immunoblotting. Cells were plated in 24-well tissue culture plates coated with 70 μg/ml rat collagen-1 (Corning; Corning, N.Y.), and grown for 2 d to 3 d at 37° C./5% CO2 until confluency. […] Then medium was exchanged for Medium 200 supplemented with 0.1% HSA (Sigma-Aldrich) and 20 μM of LPA (Santa Cruz Biotech; Santa Cruz, Calif.) and incubated for 5 min. After LPA stimulation, proteins were extracted from cells by lysis with RIPA buffer supplemented with HALT complete protease/phosphatase inhibitor (ThermoFisher, Waltham, Mass.), reduced and denatured using Laemmli sample buffer (BioRad, Hercules, Calif.)/beta-mercaptoethanol and subjected to SDS-PAGE.
Denatured samples were electrophoresed in reducing 10% Bis-Tris-gels polyacrylamide gels (Novex; Thermo-Fisher, Waltham, Mass.) and were transferred onto 0.25 μm PVDF membranes (EMD Millipore, Billerica, Mass.). Membranes are probed using amti-pMLC2 T18/S19 (1:500; Cell Signaling, Danvers, Mass.) or anti-pCofilin S9 (1:500, Cell Signaling, Danvers, Mass.) and anti-glyceraldehyde 3-phosphate dehydrogenase loading control (GAPDH, 1:10000; Abcam). Protein levels were detected using chemiluminescence substrate (Super Signal West, ThermoFisher, Waltham, Mass.) and images captured using a FluoroChem SP Imaging System.
Experiment [8] deals with HUVEC monolayer. The experiment can be described thus: LPA-treated HUVECs, endothelial monolayer integrity. The experiment is classed as cell-based, human. The settings on record: 1 μM or 10 μM, 20 μM LPA 60 min.
Protocol: as §3
To examine HUVEC monolayer integrity, cells were plated on PDL-coated coverslips (Corning) coated with fibronectin, collagen-1 and gelatin. 50,000 cells were seeded on each coverslip situated in a 24-well plate. Cells were grown for 3 days at 37° C./5% CO2. […] The medium was exchanged by Medium 200 supplemented with 0.1% HSA and 20 μM of LPA (Santa Cruz) and incubated for 60 min.
After LPA stimulation, cells were fixed with 4% paraformaldehyde and stained for actin-phalloidin (ThermoFisher, Waltham, Mass.) and V-Cadherin (Cell Signaling, Danvers, Mass.) and mounted on microscope slides. Coverslips were imaged by fluorescence microscopy and the cell free holes in the monolayer are measured using Image J (freeware; https://imagej.nih.gov/ij/).
For experiment [9], the system named is Rho/ROCK activity (MLC2 diphosphorylation) in human brain microvascular endothelial cells. The experiment can be described thus: LPA-treated hBMVECs, pMLC2 T18/S19 immunoblot. The experiment is classed as cell-based. The settings on record: 20 μM LPA, Example 16, present tense, no data shown.
Protocol: (§4) Cells are exposed to each dose for 1 hr, and are then stimulated with 20 μM LPA for either 5 min or 1 hr as described below. All experiments are conducted in triplicate and analyzed by 2 independent assessors blinded to both cell line and treatment.
Cells are subjected to biochemical analysis of diphosphorylated MLC2 (Threonine 18/Serine 19 phosphorylation sites) and phosphorylated cofilin (Serine 9 phosphorylation site) using SDS-PAGE and immunoblotting. Cells are plated in 24-well tissue culture plates coated with 70 μg/ml rat collagen-1 (Corning) and grown in ENDO-growth media (Neuromics) for 3 days at 37° C./5% CO2 until confluency. […] The medium is exchanged for ENDO basal media supplemented with 1% HSA, 20 μM of LPA (Santa Cruz Biotech; Santa Cruz, Calif.) and the appropriate amount of compound being tested. After 5 min, the medium is aspirated and the cells are briefly washed with 1×PBS. Proteins are extracted from cells by lysis with RIPA buffer supplemented with complete protease/phosphatase inhibitor (HALT, Thermo Fisher Scientific), reduced and denatured using Laemmli sample buffer (BioRad; Hercules, Calif., beta-mercaptoethanol and subjected to SDS-PAGE.
Denatured samples are electrophoresed in reducing 10% Bis-Tris-PA gels (Novex; Thermo-Fisher), and are transferred onto 0.25 μm PVDF membranes (EMD Millipore). Membranes are probed using amti-pMLC2 T18/S19 (1:500; Cell Signaling) or anti-pCofilin (1:500, Cell Signaling S9) and anti-glyceraldehyde 3-phosphate dehydrogenase loading control (GAPDH, 1:10000; Abcam, Cambridge, Mass.). Protein levels are detected using a chemiluminescence substrate (Super Signal West, ThermoFisher) and images are captured using a FluoroChem SP Imaging System.
The subject of experiment [10] is hBMVEC monolayer. The experiment can be described thus: LPA-treated hBMVECs, endothelial monolayer integrity. The class given is cell-based, human. The settings on record: 1 μM or 10 μM, 20 μM LPA, Example 16, present tense.
Protocol: as §4
To examine hBMVECs monolayer integrity, cells are plated on PDL-coated coverslips (Corning) coated with Fibronectin, Collagen-1 and gelatin. 50,000 cells are seeded on each coverslip situated in a 24-well plate. Cells are grown for 3 days in ENDO-growth media (Neuromics) at 37° C./5% CO2. […] The medium is exchanged for ENDO basal media supplemented with 1% HSA, 20 μM of LPA (Santa Cruz Biotech; Santa Cruz, Calif.) and the appropriate amount of compound being tested. After 60 min, cells were fixed with 4% paraformaldehyde and stained for actin-phalloidin (ThermoFisher) and V-Cadherin (Cell Signaling), and then were mounted on microscope slides. Coverslips were imaged by fluorescence microscopy and the cell-free holes in the monolayer are measured using Image J. 3.
Experiment [11] has as its target NET (norepinephrine transporter) (Homo sapiens (Human), UniProt P23975). The settings on record: Sturdivant et al., ibid.; cited from earlier work.
Experiment [12] concerns the target SERT (serotonin transporter) (Homo sapiens (Human), UniProt P31645). The settings on record: Sturdivant et al., ibid.; cited from earlier work.
The test system of experiment [13] is human umbilical vein endothelial cells (HUVECs). The experiment can be described thus: LPA-stimulated HUVECs, actin stress fibers and vinculin. The class given is cell-based. The settings on record: 50 μM, 20 μM LPA 10 min.
Protocol: Primary HUVEC cells (Gibco®, Thermo Fisher, Waltham, Mass.) are cultured in endothelial growth media (Gibco® Medium 200 basal media Cat supplemented with Gibco® Large Vessel Endothelial Supplement). HUVECs between passage 1 and 4 are used for all experiments. HUVECs are cultured on poly-D-lysine-treated glass coverslips (Corning, Corning, N.Y.) coated with 70 μg/ml rat collagen I (Corning, Corning, N.Y.) and cultured for 4 d until a confluent monolayer of cells is established. […] Then HUVECs are stimulated with 20 μM LPA for 10 min and subsequently fixed using 4% paraformaldehyde (PFA)/sucrose solution.
After PFA fixation, cells on coverslips are permeabilized with TBS-Triton-X100 (0.1%), blocked with 1% bovine serum albumin and incubated with mouse vinculin primary antibody (Table 16). Vinculin immunolabelling is visualized using a secondary anti-mouse fluorescent antibody (Table 16). Actin cytoskeleton is visualized by staining with fluorescent phalloidin (Table 16), a compound that specifically binds F-actin filaments. Epifluorescence microscopy is used to acquire images of Immuno- and phalloidin fluorescence, respectively.
Experiment [14] has as its target T2, ROCK2. The experiment can be described thus: ROCK2 inhibition curves, MYPT1 substrate plate assay. The class given is biochemical. The settings on record: purified ROCK2, MYPT1 substrate. As to the method:
Each compound was dissolved at 100 mM in DMSO. This compound-DMSO solution is diluted to 500 μM in dH2O. Serial dilutions were prepared so that a semi-log range of compound is present after being diluted 5× in other assay reagents, from 100 μM through 1 nM.
10 μL of each concentration of each compound was added in duplicate to individual wells of a 96-well Maxisorp plate (ThermoFisher) pre-coated with the ROCK2 substrate MYPT1 (ThermoFisher). dH2O is added as a negative control.
Using a multichannel pipettor, […] of final volume per well was made by the addition of the following of each solution to begin the reaction: 10 μL 20 mM MOPS pH 7.2, 25 mM β-glycerophosphate, 5 mM EGTA, 1 mM Na3VO4, and 1 mM DTT, 10 μL 50 μM ATP, 10 μL 75 mM MgCl2, and 10 μL 1 mU/μL ROCK2 solution. […]
100 μL TMB/E solution was added to each well with a multichannel pipette. Upon sufficient color development, the reaction was stopped using 100 μL stop solution and absorbance read using a Wallac Victor2 plate reader at 450 nm.
Because absorbance values proportional to ROCK2 activity, plotting absorbance at 450 nm versus final concentration of metabolite and parent compound provides inhibition curves. Relative inhibitory profiles were determined through 4PL analysis of these curves. Variations in calculated IC50 are common before assay optimization due to variations in experimental variables.

Where [15] appears, read: read-out: Compound IC50 ROCK1 10 μM ATP, CRO Eurofins, 10 μM ATP.
The mark [16] stands for this setting: read-out: Compound IC50 ROCK2 10 μM ATP, CRO Eurofins, 10 μM ATP.

A word on the pIC50: it is the negative decadic logarithm of the IC50, by convention in mol/L. For orientation: pKd means the Kd on a negative log10 scale, so that one unit is a factor of ten. For `CC(N)C1CCN(S(=O)(=O)c2cccc3cnccc23)CC1` (racemic) [BA-1049], the pIC50 is 5.17 in experiment [1] (setting [15]); 5.89 in experiment [1] (read-out: Compound IC50 ROCK1 10 μM ATP, CRO Reaction Biology, 10 μM ATP, listed as Racemic BA-1049: Lot 1); 5.99 in experiment [1] (read-out: Compound IC50 ROCK1 10 μM ATP, CRO Reaction Biology, 10 μM ATP, listed as Racemic BA-1049: Lot 2); 4.99 in [1] (read-out: Compound IC50 ROCK1 10 μM ATP, CRO Upstate Cell Signaling, 10 μM ATP); 6.26 in experiment [2] (setting [16]); 6.22 in experiment [2] (read-out: Compound IC50 ROCK2 10 μM ATP, CRO Reaction Biology, 10 μM ATP, listed as Racemic BA-1049: Lot 1). Besides, the pIC50 is 5.99 in experiment [2] (read-out: Compound IC50 ROCK2 10 μM ATP, CRO Reaction Biology, 10 μM ATP, listed as Racemic BA-1049: Lot 2) and 6.10 in experiment [2] (read-out: Compound IC50 ROCK2 10 μM ATP, CRO Upstate Cell Signaling, 10 μM ATP). Besides, the Fold-Difference in experiment [2] (CRO Eurofins, 10 μM ATP) came out at 12.4; in experiment [2] (CRO Reaction Biology, 10 μM ATP, listed as Racemic BA-1049: Lot 1), 2.1; in [2] (CRO Reaction Biology, 10 μM ATP, listed as Racemic BA-1049: Lot 2), 2.8; in experiment [2] (CRO Upstate Cell Signaling, 10 μM ATP), 12.8; in experiment [6] (Table 5, listed as Racemic BA-1049: Lot 1), 1.2; in experiment [6] (Table 5, listed as Racemic BA-1049: Lot 2), 1.3. The “ratio of phospho-cofilin expression left (MCAO) versus right hemisphere” value in experiment [3] is “strongly reduced”. The “phospho-MLC2 (Ser19) staining of small blood vessels of insular cortex” value in experiment [4] was “even more effective than Fasudil at reducing small vessel staining”. Besides, the pKd is 7.27 in experiment [5] (read-out: ROCK1 KD, average of duplicate determinations, Table 5, listed as Racemic BA-1049: Lot 1); 7.05 in experiment [5] (read-out: ROCK1 KD, average of duplicate determinations, Table 5, listed as Racemic BA-1049: Lot 2); 7.34 in experiment [6] (read-out: ROCK2 KD, average of duplicate determinations, Table 5, listed as Racemic BA-1049: Lot 1); 7.18 in experiment [6] (read-out: ROCK2 KD, average of duplicate determinations, Table 5, listed as Racemic BA-1049: Lot 2).
As for `C[C@H](N)C1CCN(S(=O)(=O)c2cccc3cnccc23)CC1`, the pIC50 in experiment [1] (10 μM ATP, Table 2, read-out: Compound IC50 ROCK1) is 4.99; in experiment [1] (setting [15]), 4.99; in [1] (read-out: Compound IC50 ROCK1 10 μM ATP, CRO Reaction Biology, 10 μM ATP) it was 5.84; in experiment [1] (read-out: Compound IC50 ROCK1 70 μM ATP, Km ATP 70 μM, Table 3), 4.24; in experiment [1] (read-out: Compound IC50 ROCK1 70 μM ATP, Km ATP 70 μM, Table 7), 4.24; in [2] (10 μM ATP, Table 2, read-out: Compound IC50 ROCK2), 6.14. For the same compound, the negative logarithm of the IC50 (pIC50) was 6.14 in experiment [2] (setting [16]); 6.14 in [2] (read-out: Compound IC50 ROCK2 10 μM ATP, CRO Reaction Biology, 10 μM ATP); 6.00 in [2] (read-out: Compound IC50 ROCK2 15 μM ATP, Km ATP 15 μM, Table 3); 6.00 in experiment [2] (read-out: Compound IC50 ROCK2 15 μM ATP, Km ATP 15 μM, Table 7). Moreover, the Fold-Difference in experiment [2] (CRO Eurofins, 10 μM ATP) is recorded as 14.1; in [2] (CRO Reaction Biology, 10 μM ATP), 2.0; in experiment [2] (ROCK1 (70 μM ATP) vs ROCK2 (15 μM ATP) IC50), 57.9; in [2] (ROCK1 vs ROCK2 IC50, 10 μM ATP), 14.1; in [6] (Table 5), 0.9. In addition, the “effect on MLC2 diphosphorylation (pMLC2 T18/S19)” value in experiment [7] and in experiment [9] was “reduce MLC2 diphosphorylation” in each case. Besides, in experiment [8], the “monolayer integrity after LPA” value is given as “neither concentration reverses the effect of LPA”. Also, the “monolayer integrity / Rho/ROCK activation after LPA” value in experiment [10] is given as “neither concentration reverses the effect of LPA”. For the same compound, the pKd in experiment [5] (read-out: ROCK1 KD, average of duplicate determinations, Table 5) was 6.81; in experiment [5] (read-out: ROCK1 Kd, Table 1), 6.92; in experiment [6] (read-out: ROCK2 KD, average of duplicate determinations, Table 5), 6.80; in experiment [6] (read-out: ROCK2 Kd, Table 1) it was 6.89. Moreover, in experiment [6] (ratio of dissociation constants ROCK1/ROCK2), the “Fractional Selectivity for ROCK2” value is on record as 0.92.
With `Cc1ccc(C(=O)OCc2ccc([C@@H](CN)C(=O)Nc3ccc4cnccc4c3)cc2)c(C)c1` [AR-13324], in [11], the “% Inhibition of Neurotransmitter Transporter Activity, NET” value was 96%. Besides, the “% Inhibition of Neurotransmitter Transporter Activity, SERT” value in experiment [12] was 94%.
As for `O=S(=O)(c1cccc2cnccc12)N1CCCNCC1` [Fasudil], the “phospho-MLC2 (Ser19) staining of small blood vessels of insular cortex” value in experiment [4] was “reduces the amount of staining”. In [13], the “actin stress fiber formation upon LPA stimulation” value is “prevents such formation of stress fiber” and the “vinculin immunofluorescence, integrity of HUVEC monolayer upon LPA stimulation” value was “upregulation of vinculin-positive focal adhesion complexes associated with a decreased cell confluency”.
On to `C[C@@H](N)C1CCN(S(=O)(=O)c2cccc3c[n+]([O-])ccc23)CC1` [N-oxide-BA-1049 (R)], for which, in [14], the “inhibitory activity for ROCK2 relative to parent BA-1049 (R)” value was “does not exhibit any inhibitory activity”. The “effect on MLC2 diphosphorylation (pMLC2 T18/S19)” value in experiment [7] is listed as “did not show such an effect”; in [9] it was “do not show such an effect”.
